The target of one experiment is T1, LdcCA (Leishmania infantum, UniProt A4HSV2).
T1 construct: gene LINJ_06_0630; organism given as Leishmania donovani chagasi
T1 sequence (A4HSV2 1-306): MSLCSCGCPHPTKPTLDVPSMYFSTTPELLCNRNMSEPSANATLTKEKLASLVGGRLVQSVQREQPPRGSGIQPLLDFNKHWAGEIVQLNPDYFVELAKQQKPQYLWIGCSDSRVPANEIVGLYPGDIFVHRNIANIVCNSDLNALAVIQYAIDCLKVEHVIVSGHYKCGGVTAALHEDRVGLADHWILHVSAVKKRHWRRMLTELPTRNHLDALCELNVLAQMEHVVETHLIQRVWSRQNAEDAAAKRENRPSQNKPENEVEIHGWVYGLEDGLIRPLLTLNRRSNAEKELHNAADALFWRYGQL
Nature of the experiment: stopped-flow CO2 hydrase assay. It counts as biochemical. The following applies: 20 mM TRIS pH 8.3, 20 mM Na2SO4, CO2 1.7-17 mM, 15 min preincubation at room temperature.

Another experiment concerns the target T2, TcCA (Trypanosoma cruzi, UniProt Q4CVY4).
T2 construct: gene Tc00.1047053509597.20
T2 sequence (Q4CVY4 39-638): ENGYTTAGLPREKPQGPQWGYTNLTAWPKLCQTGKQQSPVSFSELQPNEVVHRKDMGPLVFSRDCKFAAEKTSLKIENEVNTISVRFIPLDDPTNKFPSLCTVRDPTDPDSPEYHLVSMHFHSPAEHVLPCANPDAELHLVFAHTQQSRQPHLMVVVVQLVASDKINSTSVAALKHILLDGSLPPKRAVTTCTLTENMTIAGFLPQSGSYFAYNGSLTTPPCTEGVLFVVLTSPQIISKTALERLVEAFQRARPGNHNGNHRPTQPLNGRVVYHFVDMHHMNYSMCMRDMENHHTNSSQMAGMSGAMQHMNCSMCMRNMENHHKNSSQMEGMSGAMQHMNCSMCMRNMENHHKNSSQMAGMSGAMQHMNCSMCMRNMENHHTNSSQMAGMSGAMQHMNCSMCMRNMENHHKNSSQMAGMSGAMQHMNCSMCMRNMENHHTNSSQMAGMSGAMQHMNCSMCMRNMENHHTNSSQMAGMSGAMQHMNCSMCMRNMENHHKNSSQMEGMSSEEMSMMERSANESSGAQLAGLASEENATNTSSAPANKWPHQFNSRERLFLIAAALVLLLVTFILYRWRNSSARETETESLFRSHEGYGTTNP
Description: stopped-flow CO2 hydrase assay. It counts as biochemical. Particulars: 20 mM Hepes pH 7.5, 20 mM Na2SO4, CO2 1.7-17 mM, 15 min preincubation at room temperature.

A word on the Ki: it is the equilibrium dissociation constant of an inhibitor or competing ligand from its target. A lower Ki goes with higher affinity.

For the compound `OB1OCc2cc(F)ccc21` [Tavaborole, reference compound], the Ki on LdcCA stood at 2.54 µM; on TcCA it was 60.5 µM.
The corresponding values for `OB1OCc2ccccc21` [compound 1, benzoxaborole 1] are 3.79 µM and > 100 µM.
The corresponding values for `O=[N+]([O-])c1ccc2c(c1)B(O)OC2` [compound 2, 6-nitro benzoxaborole 2] are 4.01 µM and > 100 µM.
On to `Nc1ccc2c(c1)B(O)OC2` [compound 3, 6-amino benzoxaborole 3], for which the Ki on LdcCA is 2.37 µM; on TcCA, > 100 µM.
The corresponding values for `O=C(NCc1ccccc1)Nc1ccc2c(c1)B(O)OC2` [compound 4, 4] are 2.04 µM and 75.1 µM.
Consider `Cc1cc(Cl)cc(CNC(=O)Nc2ccc3c(c2)B(O)OC3)c1` [compound 5, 5], for which the results for the inhibitory constant (Ki) on LdcCA and at TcCA were 4.3 µM and 87.6 µM, respectively.
On to `O=C(Nc1ccccc1)Nc1ccc2c(c1)B(O)OC2` [compound 6, phenylureido benzoxaborole 6], for which the Ki at LdcCA was 0.74 µM; at TcCA, 32.3 µM.
`O=C(Nc1ccc(Cl)cc1)Nc1ccc2c(c1)B(O)OC2` [compound 7, 7]: the Ki at LdcCA amounted to 0.62 µM; on TcCA, 37.8 µM.
The corresponding values for `O=C(NCc1ccco1)Nc1ccc2c(c1)B(O)OC2` [compound 8, 8] are 3.54 µM and 67.6 µM.
As to `O=C(Nc1ccc(F)cc1)Nc1ccc2c(c1)B(O)OC2` [compound 9, 9], the Ki on LdcCA was 0.78 µM; on TcCA it was 24 µM.
Turning to `O=C(Nc1ccc(C(F)(F)F)cc1)Nc1ccc2c(c1)B(O)OC2` [compound 10, 10], the Ki on LdcCA was found to be 2.59 µM; at TcCA it was 60.7 µM.
Take `O=C(Nc1ccc2c(c1)B(O)OC2)Nc1c(Cl)cc(Cl)cc1Cl` [compound 11, 11]: the Ki on LdcCA was 3.85 µM; on TcCA, 69.5 µM.
The corresponding values for `COc1ccc(C)cc1NC(=O)Nc1ccc2c(c1)B(O)OC2` [compound 12, 12] are 0.67 µM and 38.6 µM.
The corresponding values for `CC(=O)c1ccc(NC(=O)Nc2ccc3c(c2)B(O)OC3)cc1` [compound 13, 13] are 0.48 µM and 33.6 µM.
The corresponding values for `OB1OCc2ccc(NC(=S)NCCc3ccccc3)cc21` [compound 14, 14] are 3.2 µM and 72.8 µM.
For the compound `Cc1ccc(NC(=S)Nc2ccc3c(c2)B(O)OC3)cc1` [compound 15, 15], the Ki on LdcCA came to 0.67 µM; on TcCA, 32.5 µM.
The corresponding values for `OB1OCc2ccc(NC(=S)Nc3ccc4ccccc4c3)cc21` [compound 16, 16] are 3.06 µM and 58.8 µM.
In the case of `COc1ccc(NC(=S)Nc2ccc3c(c2)B(O)OC3)cc1` [compound 17, 17], the Ki came to 0.59 µM on LdcCA and 12.6 µM on TcCA.
Take `O=[N+]([O-])c1ccc(NC(=S)Nc2ccc3c(c2)B(O)OC3)cc1` [compound 18, 18]: the Ki on LdcCA was found to be 0.91 µM; at TcCA, 46.8 µM.
The corresponding values for `OB1OCc2ccc(NC(=S)NCc3ccccc3)cc21` [compound 19, 19] are 4.37 µM and 59.6 µM.
As for `OB1OCc2ccc(NC(=S)Nc3ccc(F)cc3)cc21` [compound 20, 20], the Ki at LdcCA is 0.66 µM; at TcCA it was 19.7 µM.
`OB1OCc2ccc(NC(=S)NCc3ccco3)cc21` [compound 21, 21]: the Ki on LdcCA came to 4.36 µM; on TcCA, 42.1 µM.
`OB1OCc2ccc(NC(=S)Nc3ccc(C(F)(F)F)cc3)cc21` [compound 22, 22]: the Ki on LdcCA amounted to 0.85 µM; on TcCA it was 16.6 µM.
The corresponding values for `OB1OCc2ccc(NC(=S)Nc3ccccc3)cc21` [compound 23, phenylthioureido benzoxaborole 23] are 0.65 µM and 23.4 µM.

(Values after publication PMC6009872, “Carbonic anhydrases from Trypanosoma cruzi and Leishmania donovani chagasi are inhibited by benzoxaboroles” (Journal of Enzyme Inhibition and Medicinal Chemistry, 2017).)
